Results from PubChem BioAssay AID588498 (Molecular Libraries Program, Specialized Chemistry Center, …, 2011).
Calls of active or inactive are those of the source.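 The calls were made as follows: active = compounds that block purified firefly luciferase enzyme with half-maximal potency below 20 µM; inactive = the rest.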

target: Luciferin 4-monooxygenase (Photinus pyralis) (UniProt P08659); assay: purified FLuc enzyme activity modulation – biochemical, qHTS, Km substrates, luminescence, counter-screen for EBNA-1 inhibitor project, profiling panel (AID 588498)
Sequence (P08659 whole entry, looked up): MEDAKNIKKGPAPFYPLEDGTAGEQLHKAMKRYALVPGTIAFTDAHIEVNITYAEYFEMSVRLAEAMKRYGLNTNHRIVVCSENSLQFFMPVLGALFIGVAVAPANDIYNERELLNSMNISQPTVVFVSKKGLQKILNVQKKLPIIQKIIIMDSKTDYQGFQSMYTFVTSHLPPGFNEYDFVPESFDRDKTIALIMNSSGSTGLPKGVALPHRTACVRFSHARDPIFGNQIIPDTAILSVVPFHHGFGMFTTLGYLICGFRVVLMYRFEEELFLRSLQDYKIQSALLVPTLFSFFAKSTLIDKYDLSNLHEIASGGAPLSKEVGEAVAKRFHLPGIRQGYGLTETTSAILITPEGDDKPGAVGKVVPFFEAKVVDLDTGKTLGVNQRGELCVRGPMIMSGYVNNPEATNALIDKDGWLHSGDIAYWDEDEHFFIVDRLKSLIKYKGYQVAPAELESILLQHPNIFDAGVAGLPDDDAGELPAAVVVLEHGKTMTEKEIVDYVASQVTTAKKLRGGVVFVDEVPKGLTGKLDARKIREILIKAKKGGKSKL

Row | SMILES | AC50
1 | Nc1c(C(=O)Nc2ccc3c(c2)OCCO3)nnn1Cc1cccc(C(F)(F)F)c1 | 20.6 µM
2 | Cc1ccccc1C(=O)Nc1nc2ccc(S(C)(=O)=O)cc2s1 | 6.51 µM
3 | Cc1ccc(C(=O)Nc2nc3ccc(S(C)(=O)=O)cc3s2)cc1 | 1.83 µM
4 | CS(=O)(=O)c1ccc2nc(NC(=O)c3ccccc3Cl)sc2c1 | 3.26 µM
5 | COc1ccc(Cn2nnc(C(=O)Nc3ccc4c(c3)OCCO4)c2N)cc1 | 2.91 µM
6 | Cc1cccc(C(=O)Nc2nc3ccc(S(C)(=O)=O)cc3s2)c1 | 2.91 µM
7 | Nc1c(C(=O)Nc2cccc(C(F)(F)F)c2)nnn1Cc1cccc(Cl)c1 | > 30 µM (inactive)
8 | COc1cccc(Cn2nnc(C(=O)Nc3ccc4c(c3)OCCO4)c2N)c1 | 4.11 µM
9 | Cc1cccc(-n2nnnc2SCC(=O)c2cc(C)n(CC3CCCO3)c2C)c1 (centres undefined) | 18.3 µM
10 | Cc1ccccc1-n1nnnc1SCC(=O)c1cc(C)n(CC2CCCO2)c1C (centres undefined) | 2.91 µM
11 | Nc1c(C(=O)Nc2ccc3c(c2)OCCO3)nnn1Cc1cccc(Cl)c1 | 3.26 µM
12 | Cc1ccc(C(=O)Nc2nc3ccc(S(C)(=O)=O)cc3s2)cc1C | 5.8 µM
13 | COc1ccc(C(=O)Nc2nc3ccc(S(C)(=O)=O)cc3s2)cc1 | 2.59 µM
14 | Cc1ccc(-n2nnnc2SCC(=O)c2cc(C)n(CC3CCCO3)c2C)cc1 (centres undefined) | 6.51 µM
15 | COCCn1c(C)cc(C(=O)CSc2nnnn2-c2ccccc2)c1C | 1.63 µM
16 | Cc1ccccc1NC(=O)c1nnn(Cc2cccc(Cl)c2)c1N | > 30 µM (inactive)
17 | Cc1cc(C(=O)CSc2nnnn2-c2ccccc2)c(C)n1CC1CCCO1 (centres undefined) | 2.06 µM
18 | COc1ccc2nc(NC(=O)c3ccc(C)c(C)c3)sc2c1 | 0.651 µM
19 | CS(=O)(=O)c1ccc2nc(NC(=O)c3cccc(F)c3)sc2c1 | 0.366 µM
